Patent publication US12371454B2, “Cyclic peptide compound having Kras inhibitory action” (priority 2019, dated 2025)
Starred links: 1 amine or outer side, 2 acyl side, 3 side chain; linkers in the order of their positions; H or OH if unused. Positions of bridges follow the written chain, without caps; N, C: chain ends. Non-standard residues stand in square brackets, D forms with d. Residues, ends and D or L forms follow the SMILES beside them. *: point of attachment. hPhe(3-Cl-4-CF3) = N[C@@H](CCc1ccc(C(F)(F)F)c(Cl)c1)C(=O)O; hPhe(3-F,4-CF3) = N[C@@H](CCc1ccc(C(F)(F)F)c(F)c1)C(=O)O; NMePhe(4-CF3) = CN[C@@H](Cc1ccc(C(F)(F)F)cc1)C(=O)O; Thiomorpholino(1,1-dioxo) = O=S1(=O)CCN(*)CC1; NMePhe(4-Cl) = CN[C@@H](Cc1ccc(Cl)cc1)C(=O)O; NMePhe(4-Me) = CN[C@@H](Cc1ccc(C)cc1)C(=O)O; NMedβ3hAla = C[C@H](CC(=O)[*:2])N(C)[*:1]; Leu(4,5-dehydro) = C=C(C)C[C@H](N)C(=O)O; NMeGly(cPent) = CN[C@H](C(=O)O)C1CCCC1; Phe(3-I) = N[C@@H](Cc1cccc(I)c1)C(=O)O; NMe3Pal = CN[C@@H](Cc1cccnc1)C(=O)O; NMeCha = CN[C@@H](CC1CCCCC1)C(=O)O; NEtLeu = CCN[C@@H](CC(C)C)C(=O)O; NMeChg = CN[C@H](C(=O)O)C1CCCCC1; hPhe = N[C@@H](CCc1ccccc1)C(=O)O; N(CH2CH2)2CF2 = FC1(F)CCN(*)CC1; NMeD = CN[C@@H](CC(=O)O)C(=O)O; NMeL = CN[C@@H](CC(C)C)C(=O)O; d(β3hA) = C[C@@H](N)CC(=O)O; NMeA = CN[C@@H](C)C(=O)O; NMeAib = CNC(C)(C)C(=O)O; Piperidide = C1CCN(*)CC1; Pra = C#CC[C@H](N)C(=O)O; Pyrrolidide = C1CCN(*)C1; Ac5c = NC1(C(=O)O)CCCC1; Aze = O=C(O)[C@@H]1CCN1; Sar = CNCC(=O)O

The compounds below were run against T1, Kras and SOS1 (biotin-tagged human Kras loaded with GDP, His-tagged human SOS1) (Homo sapiens, UniProt P01116, G12D) (assay: Protein-protein interaction inhibition between Kras and SOS1 (KrasGl2D-SOS PPI) using AlphaScreen). Settings: AlphaScreen; biotin-tagged human Kras loaded with GDP, His-tagged human SOS1; read-out: KRAS G12D-SOS PPI IC50.
T1 construct: made in house; host or cells: E. coli (stated for Kras only)
Type: binding
Method in brief: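 Binding between SOS1 and Kras is detected as bead-proximity luminescence: illuminate Ni-conjugated donors (680 nm), collect 520-620 nm emission from streptavidin-conjugated acceptors; Kras carries biotin and GDP loaded after purification, SOS1 carries a His tag.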

T1 sequence (P01116 1-188 isoform P01116-2 G12D): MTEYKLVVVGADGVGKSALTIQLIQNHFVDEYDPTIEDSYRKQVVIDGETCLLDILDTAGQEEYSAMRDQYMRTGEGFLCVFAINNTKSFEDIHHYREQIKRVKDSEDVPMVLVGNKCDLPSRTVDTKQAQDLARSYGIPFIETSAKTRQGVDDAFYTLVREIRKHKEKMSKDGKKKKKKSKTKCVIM

Point of comparison: `CC[C@H](C)[C@@H]1NC(=O)[C@H](CC(C)C)N(C)C(=O)C[C@@H](C(=O)N2CCS(=O)(=O)CC2)N(C)C(=O)[C@H](C2CCCC2)N(C)C(=O)C2(CCCC2)NC(=O)[C@H](CC(=O)N2CCC(F)(F)CC2)N(C)C(=O)[C@H](CCc2ccc(C(F)(F)F)c(Cl)c2)NC(=O)CN(C)C(=O)[C@H](CC2CCCCC2)N(C)C(=O)[C@@H]2CCN2C(=O)[C@H](C)N(C)C1=O` [Compound 780] ([NMeL]I[NMeA][Aze][NMeCha][Sar][hPhe(3-Cl-4-CF3)][NMeD](N(CH2CH2)2CF2)[Ac5c][NMeGly(cPent)][NMeD]-{Thiomorpholino(1,1-dioxo)}; lactam N-11), IC50 21 nM. Against it:
- CC[C@H](C)[C@@H]1NC(=O)[C@H](CC(C)C)N(CC)C(=O)C[C@@H](C(=O)N(C)C)N(C)C(=O)[C@H](C2CCCC2)N(C)C(=O)C2(CCCC2)NC(=O)[C@@H]2CCCN2C(=O)[C@H](CCc2ccc(C(F)(F)F)c(F)c2)NC(=O)CN(C)C(=O)[C@H](CC2CCCCC2)N(C)C(=O)[C@@H]2CCN2C(=O)[C@H](C)N(C)C1=O [Compound 1324] ([NEtLeu]I[NMeA][Aze][NMeCha][Sar][hPhe(3-F,4-CF3)]P[Ac5c][NMeGly(cPent)][NMeD]-NMe2; lactam N-11) — 18-fold lower, 1.2 nM
- CC[C@H](C)[C@@H]1NC(=O)[C@H](CC(C)C)N(C)C(=O)C[C@@H](C)NC(=O)[C@H](CC(C)C)N(C)C(=O)C2(CCCC2)NC(=O)[C@@H]2CCCN2C(=O)[C@H](CCc2ccc(C(F)(F)F)c(Cl)c2)NC(=O)CN(C)C(=O)[C@H](CC2CCCCC2)N(C)C(=O)CN(C)C(=O)CN(C)C1=O [Compound 1503] (cyclo([Ac5c][NMeL][d(β3hA)][NMeL]I[Sar][Sar][NMeCha][Sar][hPhe(3-Cl-4-CF3)]P)) — within 1.5-fold, 16 nM
- CC[C@H](C)[C@@H]1NC(=O)[C@H](CC(C)C)N(C)C(=O)C[C@@H](C(=O)N2CCCCC2)N(C)C(=O)[C@H](CC(C)C)NC(=O)C(C)(C)N(C)C(=O)[C@H](CC(C)C)NC(=O)[C@H](CCc2ccc(C(F)(F)F)c(F)c2)NC(=O)CN(C)C(=O)[C@H](CC2CCCCC2)N(C)C(=O)CN(C)C(=O)CN(C)C1=O [Compound 969] ([NMeL]I[Sar][Sar][NMeCha][Sar][hPhe(3-F,4-CF3)]L[NMeAib]L[NMeD]-Piperidide; lactam N-11) — 10-fold lower, 2 nM
- C=C(C)C[C@@H]1NC(=O)[C@H](Cc2cccc(I)c2)NC(=O)CN(C)C(=O)[C@H](Cc2ccc(Cl)cc2)N(C)C(=O)CN(C)C(=O)CN(C)C(=O)[C@H]([C@@H](C)CC)NC(=O)[C@H](CC(C)C)N(C)C(=O)C[C@@H](C(=O)N2CCCCC2)N(C)C(=O)[C@H](CC(C)C)NC(=O)C(C)(C)N(C)C1=O [Compound 1421] ([NMeL]I[Sar][Sar][NMePhe(4-Cl)][Sar][Phe(3-I)][Leu(4,5-dehydro)][NMeAib]L[NMeD]-Piperidide; lactam N-11) — 1.5-fold higher, 32 nM
- CC[C@H](C)[C@@H]1NC(=O)[C@H](CC(C)C)N(C)C(=O)C[C@@H](C(=O)N2CCCCC2)N(C)C(=O)[C@H](CC(C)C)NC(=O)C(C)(C)N(C)C(=O)[C@H](CCc2ccccc2)NC(=O)[C@H](Cc2cccc(I)c2)NC(=O)CN(C)C(=O)[C@H](Cc2ccc(C)cc2)N(C)C(=O)[C@@H]2CCN2C(=O)CN(C)C1=O [Compound 442] ([NMeL]I[Sar][Aze][NMePhe(4-Me)][Sar][Phe(3-I)][hPhe][NMeAib]L[NMeD]-Piperidide; lactam N-11) — 3.3-fold higher, 70 nM
- C#CC[C@@H]1NC(=O)[C@H](Cc2cccc(I)c2)NC(=O)CN(C)C(=O)[C@H](Cc2ccc(C(F)(F)F)cc2)N(C)C(=O)[C@@H]2CCN2C(=O)CN(C)C(=O)[C@H]([C@@H](C)CC)NC(=O)[C@H](CC(C)C)N(C)C(=O)C[C@@H](C)N(C)C(=O)[C@H](CC(C)C)NC(=O)C(C)(C)N(C)C1=O [Compound 1427] (cyclo([Aze][NMePhe(4-CF3)][Sar][Phe(3-I)][Pra][NMeAib]L[NMedβ3hAla][NMeL]I[Sar])) — 12-fold higher, 250 nM
- CC[C@H](C)[C@@H]1NC(=O)[C@H](C)N(C)C(=O)C[C@@H](C(=O)N2CCCC2)N(C)C(=O)[C@H](C2CCCCC2)N(C)C(=O)C2(CCCC2)NC(=O)[C@H](Cc2cccnc2)N(C)C(=O)[C@H](CCc2ccc(C(F)(F)F)c(Cl)c2)NC(=O)CN(C)C(=O)[C@H](CC2CCCCC2)N(C)C(=O)CN(C)C(=O)CN(C)C1=O [Compound 1834] ([NMeA]I[Sar][Sar][NMeCha][Sar][hPhe(3-Cl-4-CF3)][NMe3Pal][Ac5c][NMeChg][NMeD]-Pyrrolidide; lactam N-11) — 26-fold lower, 0.81 nM
- CC[C@H](C)[C@@H]1NC(=O)[C@H](CC(C)C)N(C)C(=O)C[C@@H](C(=O)N(C)C)N(C)C(=O)[C@H](C2CCCC2)N(C)C(=O)C2(CCCC2)NC(=O)[C@H](Cc2ccc(C)cc2)N(C)C(=O)[C@H](CCc2ccc(C(F)(F)F)c(Cl)c2)NC(=O)CN(C)C(=O)[C@H](CC2CCCCC2)N(C)C(=O)[C@@H]2CCN2C(=O)[C@H](C)N(C)C1=O [Compound 908] ([NMeL]I[NMeA][Aze][NMeCha][Sar][hPhe(3-Cl-4-CF3)][NMePhe(4-Me)][Ac5c][NMeGly(cPent)][NMeD]-NMe2; lactam N-11) — 1.9-fold higher, 39 nM
